Experimental data published in PubChem BioAssay (NCI).
Values joined by “and” are separate entries in the source; they are usually repeats but may differ in a detail not shown here. Equal entries are not always repeated.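 Values below derive from 48-hour exposures of cells grown in 96-well plates, with endpoints linearly interpolated between the two concentrations bracketing the appropriate inhibition level. The concentration for 50% growth inhibition is given as GI50. TGI denotes the concentration required for complete inhibition of growth.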

What was measured:
Test in all cases: DTP human tumour cell line panel, 48 h
ACHN renal = test system: ACHN renal
SR leukemia = test system: SR leukemia
SK-OV-3 ovarian = test system: SK-OV-3 ovarian
MDA-MB-435 = test system: MDA-MB-435
SF-295 CNS = test system: SF-295 CNS
LOX IMVI melanoma = test system: LOX IMVI melanoma
MDA-MB-231 breast = test system: MDA-MB-231 breast
RPMI-8226 leukemia = test system: RPMI-8226 leukemia
RXF 393 renal = test system: RXF 393 renal
BT-549 breast = test system: BT-549 breast

SMILES	TGI (ACHN renal)	TGI (SR leukemia)	TGI (SK-OV-3 ovarian)	TGI (MDA-MB-435)	TGI (SF-295 CNS)	TGI (LOX IMVI melanoma)	TGI (MDA-MB-231 breast)	TGI (RPMI-8226 leukemia)	TGI (RXF 393 renal)	TGI (BT-549 breast)	GI50 (SF-295 CNS)	GI50 (RXF 393 renal)
CC(NC(=O)N(C)C)NC(=O)N(C)C	> 10 µM	> 10 µM	> 10 µM	> 10 µM	> 10 µM	> 10 µM	> 10 µM	> 10 µM	> 10 µM			
O=c1cc(-c2cc(O)c(O)c(-c3c(O)cc4oc(-c5ccc(O)c(O)c5)cc(=O)c4c3O)c2)oc2cc(O)cc(O)c12		> 25 µM	> 25 µM	> 25 µM	> 25 µM	> 25 µM	> 25 µM		> 25 µM	> 25 µM		
CO[C@@H]1O[C@H](C(=O)c2ccccc2)[C@H]2OC(C)(C)O[C@@H]12		> 100 µM	> 100 µM	> 100 µM	> 100 µM	> 100 µM	> 100 µM	> 100 µM	> 100 µM	> 100 µM		
N#Cc1nc(C2CCC2)oc1N	> 100 µM	> 100 µM	> 100 µM	> 100 µM	> 100 µM	> 100 µM	> 100 µM	> 100 µM	> 100 µM			
COc1cc2ccc1OCc1cccc(n1)COc1ccc(cc1OC)C=Nc1ccc(cc1)N=C2	> 100 µM	> 100 µM	> 100 µM	> 100 µM	> 100 µM	> 100 µM	> 100 µM		> 100 µM	> 100 µM		
O=c1[nH]nc(Cc2ccccc2)n1/N=C/c1ccncc1	> 100 µM	> 100 µM		> 100 µM	> 100 µM	> 100 µM	> 100 µM	> 100 µM	> 100 µM	> 100 µM		
CO[C@]12C[C@H](CNC(=O)c3ccc[nH]3)O[C@H]1NC(=O)N2	> 100 µM	> 100 µM	> 100 µM	> 100 µM	> 100 µM	> 100 µM	> 100 µM	> 100 µM		> 100 µM		
COc1cc(NC(C)=O)ccc1C(=O)NN1C(=O)/C(=C/c2ccco2)N=C1c1ccccc1	> 50 µM	> 50 µM	> 50 µM	> 50 µM	> 50 µM	> 50 µM		31.8 µM	> 50 µM	> 50 µM		
CCCCn1c(-c2ccc([N+](=O)[O-])cc2)cs/c1=N/N=C1\C(=O)Nc2ccc(Br)cc21	31.5 µM		48.8 µM	37.3 µM	61.2 µM	39 µM	32.7 µM		22.5 µM	51.6 µM		
Nc1nn2c(=O)c3ccccc3nc2s1	> 100 µM	44.7 µM	> 100 µM	> 100 µM	> 100 µM	44.7 µM		> 100 µM	> 100 µM	77.9 µM		
Cc1ccc(/C=C2\Cc3c(C)cc(C)cc3C2=O)c(C(=O)O)c1	> 100 µM	68.7 µM		88.1 µM	> 100 µM	48.9 µM		53.1 µM	88.6 µM	> 100 µM		
COCCOCCOC1=CC(=O)c2c(O)ccc(O)c2C1=O	2.99 µM	5.03 µM		0.108 µM	3.23 µM	3.11 µM	2.83 µM	4.26 µM	3.68 µM	3.2 µM		
CN(C)CC1CCC(CN(C)C)C1=O (stereo unspecified)	11.1 µM	> 100 µM	30.6 µM	> 100 µM	32.8 µM	14.4 µM	4.18 µM	3.33 µM	9.68 µM			
CC(=O)OCc1c(O)c2c(c(O)c1COC(C)=O)C(=O)C=CC2=O	21.8 µM	> 100 µM	33.4 µM		27.4 µM			> 100 µM				
N#Cc1nc(NC(=O)c2ccccc2C(=O)O)c(C#N)[nH]1	> 100 µM		> 100 µM	> 100 µM	> 100 µM	> 100 µM	> 100 µM	> 100 µM				
CCCCCCCCCc1nn2c(Cc3ccccc3)nnc2s1	40 µM		66.7 µM	62 µM	45.6 µM		54.5 µM	77.2 µM	38.3 µM	33.6 µM		
CSc1n[nH]c(N)c1C(=O)Nc1ccccc1		> 100 µM	> 100 µM	> 100 µM		> 100 µM	> 100 µM	> 100 µM	> 100 µM	> 100 µM		
CCOP(=O)(/C=C\n1ccc(N)nc1=O)OCC	> 100 µM		> 100 µM	> 100 µM	> 100 µM	> 100 µM	> 100 µM	> 100 µM	> 100 µM	> 100 µM		
CN(C)CCNC(=O)c1cccc2nc(-c3ccccc3)oc12			> 100 µM		> 100 µM	> 71.8 µM		> 100 µM	> 100 µM			
COC1CC(OC2CCC3(C)C(=CCC4C3C(OC(C)=O)C(OC(=O)CC(C)C)C3(C)C(C(C)=O)CCC43O)C2)OC(C)C1OC1CC(OC)C(OC2CC(OC)C(OC3OC(C)C(OC4OC(CO)C(O)C(O)C4O)C(OC)C3O)C(C)O2)C(C)O1 (stereo unspecified)	> 75 µM		> 75 µM	> 75 µM	> 75 µM	> 75 µM	> 75 µM	> 75 µM		> 75 µM		
COc1nc(C#CC(C)(C)C)nc(OC)n1	> 100 µM	79.3 µM	> 100 µM	84.5 µM	> 100 µM	61.4 µM	59.8 µM		> 100 µM	> 100 µM		
CCOC(=O)C1CCC(=O)N1C(=O)c1ccccc1 (stereo unspecified)	> 100 µM	> 100 µM		> 100 µM	> 100 µM	> 100 µM	> 100 µM	> 100 µM	> 100 µM	> 100 µM		
CCON1CC(C(=O)OC)=C(O)C1=O	> 100 µM		> 100 µM	> 100 µM	> 100 µM		> 100 µM	> 100 µM	> 100 µM	> 100 µM		
C1=C\SS/C=C\SS/1	> 100 µM	> 100 µM	> 100 µM	> 100 µM	> 100 µM	> 100 µM		71.8 µM	88.1 µM	> 100 µM		
CCOC(=O)c1nnsc1NN	> 100 µM		> 100 µM	> 100 µM	> 100 µM	> 100 µM	> 100 µM		> 100 µM	> 100 µM		

SMILES	TGI (ACHN renal)	TGI (SR leukemia)	TGI (SK-OV-3 ovarian)	TGI (MDA-MB-435)	TGI (SF-295 CNS)	TGI (LOX IMVI melanoma)	TGI (MDA-MB-231 breast)	TGI (RPMI-8226 leukemia)	TGI (RXF 393 renal)	TGI (BT-549 breast)	GI50 (SF-295 CNS)	GI50 (RXF 393 renal)
CCCSc1nc(-c2ccc(OC)cc2)c(C#N)c(=O)n1C1OC(COC(C)=O)C(OC(C)=O)C(OC(C)=O)C1OC(C)=O (stereo unspecified)	> 100 µM	> 100 µM	> 100 µM		> 100 µM and 92.6 µM			> 100 µM	> 100 µM and 61.2 µM		> 100 µM and 24.3 µM	> 100 µM and 17.2 µM
Oc1[nH]c2ccccc2c1N=NC(=S)Nc1ccc(Cl)cc1	> 100 µM	> 100 µM	> 100 µM	> 100 µM	> 100 µM	> 100 µM	99.6 µM	> 100 µM	> 100 µM			
C[C@H]1SC(c2ccc(Cl)cc2Cl)N(NC(=O)c2ccncc2)C1=O (stereo partly specified)	90.7 µM	> 100 µM	> 100 µM	75.3 µM	> 100 µM		> 100 µM	> 100 µM	61.2 µM	> 100 µM		
CC1(C)[C@H]2CC[C@@]13C(=O)N1C(=O)O[C@@H]([C@H]1Cl)C(Cl)(COCc1ccccc1)C(=O)OCCO[C@H]3C2 (stereo partly specified)	> 100 µM	> 100 µM	> 100 µM	> 100 µM	> 100 µM	> 100 µM		> 100 µM		> 100 µM		
COc1ccc(C2c3cc4c(cc3OC(N3CCOCC3)C2C)OCO4)c(OC)c1OC (stereo unspecified)	64.9 µM	35.6 µM		7.01 µM	43 µM	33.9 µM		39.8 µM				
COc1ccc(N(C(=O)Nc2ccc(Cl)c(Cl)c2)C2c3cccn3C(=O)N2c2ccc(Cl)c(Cl)c2)cc1 (stereo unspecified)	> 100 µM	> 100 µM		> 100 µM	94.8 µM	> 100 µM	> 100 µM	> 100 µM	> 100 µM	> 100 µM		
CCC(C(=O)C(=O)OC)P1(=O)OC(C)(C)CN1C(C)(C)C (stereo unspecified)	> 100 µM	> 100 µM	> 100 µM	> 100 µM	> 100 µM	> 100 µM	> 100 µM	> 100 µM		> 100 µM		
COc1ccc(COCC[C@H](C)OC2OC(CO[Si](C)(C)C(C)(C)C)C(OC(=O)CCCN=[N+]=[N-])C(OC(=O)CCCN=[N+]=[N-])C2OC(=O)CCCN=[N+]=[N-])cc1 (stereo partly specified)			> 100 µM	> 100 µM	> 100 µM	> 100 µM	> 100 µM		> 100 µM	68.9 µM		
COC(=O)C1=Nc2c(C)nn(-c3ccccc3)c2N=C(c2ccccc2)C1	> 10 µM	> 10 µM	> 10 µM	> 10 µM	> 10 µM	> 10 µM	> 10 µM	> 10 µM		> 10 µM		
COc1ccc(NC(=S)NC(=O)c2ccc3c(c2)Sc2ccccc2O3)c([N+](=O)[O-])c1	64.8 µM	> 100 µM	98.3 µM	> 100 µM	> 100 µM	> 100 µM	62.8 µM		75.6 µM	70.5 µM		
CC12CCCC3(CC(=O)C(C)(C)C3C(=O)C1)C2 (stereo unspecified)	> 100 µM	> 100 µM	> 100 µM	> 100 µM	> 100 µM	> 100 µM		> 100 µM		> 100 µM		
OCc1ccc2c(c1)CC1(Cc3ccc(/C=N/O)cc3C1)C2 (stereo unspecified)	> 80.6 µM	> 100 µM	> 100 µM	1.51 µM	> 40.8 µM	> 100 µM	> 100 µM	28.6 µM		> 66.4 µM		
O=c1[nH]c(=O)n(C2CC(O)C(CO)O2)cc1OCc1ccccc1 (stereo unspecified)	> 100 µM	> 100 µM	> 100 µM	> 100 µM		> 100 µM	> 100 µM	> 100 µM	> 100 µM	> 100 µM		
CN(C)CCC(=O)/C=C\c1ccccc1	32.5 µM	35.1 µM			45.5 µM	29.6 µM		34.4 µM	29.2 µM			
c1c2c(cc(-n3nnc4c3CCCCCC4)c1-n1nnc3c1CCCCCC3)CCCCCC2	20.9 µM		34.5 µM		25.3 µM	26.6 µM			21.6 µM			
CCOC(=O)C#Cc1ccccc1	> 100 µM	4.76 µM	89.6 µM	45.6 µM	30.2 µM	14.9 µM	95.1 µM	35.2 µM		79.5 µM		
CC(=O)c1cnc2oc3ccc(O)cc3c2c1-c1ccccc1	> 100 µM	> 100 µM	45.4 µM	> 100 µM	> 100 µM	> 100 µM	> 100 µM	> 100 µM	> 100 µM			
COc1cc2c(c(O)c1OC)C(=O)C(Cc1ccc(O)cc1)CO2 (stereo unspecified)	> 100 µM	> 100 µM	61.3 µM	7.24 µM	29.2 µM	> 100 µM	77.4 µM	60.3 µM	54 µM			
CNC(=O)CCCNC(=O)CCCC(=O)N(C)C	> 100 µM		> 100 µM	> 100 µM	> 100 µM	> 100 µM	> 100 µM	> 100 µM		> 100 µM		
Cc1ccc(C2=CC(=O)/C(=C\C(=O)c3ccc(Cl)cc3)O2)cc1	17.3 µM	6.1 µM	56.7 µM	32.2 µM		3.31 µM	25.1 µM	6.31 µM	18.6 µM	5.54 µM		
NC(=O)N/N=C1\CC2C3CC4C2C4C13 (stereo unspecified)	> 100 µM	> 100 µM	> 100 µM	> 100 µM	> 100 µM	> 100 µM	> 100 µM	> 100 µM		> 100 µM		
C\C(=N/N=C1/C(=C\N(C)C)C(=O)NC(=O)N1C)c1ccc(Cl)cc1	> 100 µM		> 100 µM	> 100 µM	> 100 µM	> 100 µM	> 100 µM	> 100 µM	> 100 µM	> 100 µM		
O=c1cc(N2CCCC2)[nH]c(=O)n1-c1ccccc1	> 100 µM	> 100 µM		> 100 µM	> 100 µM	> 100 µM	> 100 µM	> 100 µM		> 100 µM		
COc1cc2c(cc1Cc1c(F)cccc1Cl)nc(-c1c(F)cccc1Cl)n2Cc1c(F)cccc1Cl	> 100 µM	> 100 µM	70 µM	> 100 µM	41.3 µM		> 100 µM	> 100 µM	> 100 µM	> 100 µM		
